Tests used:
[1] = test system: plants; conditions: Val A treatment, cited from earlier work
[2] = test system: Arabidopsis seedlings; assay: Seedling growth assay on trehalose with or without Val A; format: in vivo, Arabidopsis thaliana; conditions: for sensitivity to trehalose, root length: with Val A
Experimental: FIG. 3: Growth phenotypes of AtTRE1 mutants on trehalose. Panel A, GT tre KO lines and wt Ler with Val A. Panel B, SA TRE OX lines and wt Col with Val A. Panel C, GT tre KO lines and wt Ler without Val A. Panel D, SA TRE OX lines and wt Col without Val A. Approximately 30 seedlings/treatment were grown on vertical plates, 1× MS without suc, in a 12 hours-12 hours day/night cycle, for 10 days with 0, 0.5, 1, 5, 10, or 25 mM trehalose. Data are means±SE.
FIG. 4: Growth phenotypes of AtTRE1 mutants on high trehalose. Seedlings grown in the same conditions as described in FIG. 3, without Val A, and with higher concentration of trehalose: 50, 100, 150, and 200 mM. Representative seedlings are shown.
Vapor-sterilized seeds were sown after a 48-hour stratification period in vertically or horizontally oriented Petri dishes on a full strength (or mentioned otherwise) Murashige and Skoog Salt Mixture including vitamins (MS) medium (4.3 g/l) with MES (0.5 g/l) and solidified with Phytagar (8 g/l) (Duchefa, Haarlem, The Netherlands). The media was enriched with sucrose/glucose (0-6%) or trehalose, depending on the tested conditions, which are specified. Val A was added in a concentration of 10 μM.
In our growth assay, no extra sugar was added to the media.

[3] = target: T1, trehalase (Arabidopsis thaliana, UniProt Q9SU50); conditions: cited from earlier work
T1 sequence (Q9SU50 1-626): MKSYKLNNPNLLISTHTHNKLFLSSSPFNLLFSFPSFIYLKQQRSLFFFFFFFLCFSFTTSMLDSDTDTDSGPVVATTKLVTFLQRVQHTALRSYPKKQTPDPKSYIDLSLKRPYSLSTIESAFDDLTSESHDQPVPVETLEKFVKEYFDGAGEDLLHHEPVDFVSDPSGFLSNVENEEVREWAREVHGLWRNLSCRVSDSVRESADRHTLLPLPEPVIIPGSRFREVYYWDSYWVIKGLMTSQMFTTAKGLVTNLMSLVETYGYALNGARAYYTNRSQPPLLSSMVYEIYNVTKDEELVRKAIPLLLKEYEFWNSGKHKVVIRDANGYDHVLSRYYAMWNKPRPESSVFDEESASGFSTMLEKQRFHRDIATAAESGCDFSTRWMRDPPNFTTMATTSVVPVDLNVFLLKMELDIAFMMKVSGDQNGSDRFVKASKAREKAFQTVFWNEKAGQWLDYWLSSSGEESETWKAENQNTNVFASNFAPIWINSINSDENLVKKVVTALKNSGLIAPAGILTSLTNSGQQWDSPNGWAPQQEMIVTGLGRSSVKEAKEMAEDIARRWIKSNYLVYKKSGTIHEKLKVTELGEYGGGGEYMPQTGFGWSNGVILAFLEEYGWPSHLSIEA

[4] = test system: Arabidopsis seedlings; conditions: absence of Val A; cited from earlier work

SMILES | phytotoxicity ([1]; adult plants) | phenotypic irregularities in seedlings ([1]; seedlings) | inhibition of trehalase activity in the OX lines ([2]; Val A 10 μM, SA TRE OX lines, concluded from growth on trehalose) | trehalase activity [3] | development of wild-type seedlings on high trehalose concentrations [4] | sensitivity to trehalose, root length ([2]; Col wild-type plants, 10 mM trehalose) | development with increasing trehalose concentrations ([2]; GT tre KO mutants versus wild-type Ler, without Val A) | sensitivity to trehalose, root length ([2]; Ler wild-type plants) | resistance to higher trehalose levels ([2]; SA TRE OX plants versus wild-type controls, in the presence of Val A) | sensitivity to high trehalose concentrations ([2]; SA TRE OX plants versus wild-type seedlings, without Val A, up to 200 mM) | root growth and development of wild-type seedlings ([2]; gradually increased trehalose (0-25 mM) in the presence of Val A 10 μM, no extra sugar, 10 days)
OCC1=C[C@@H](N[C@H]2C[C@H](CO)[C@@H](O[C@H]3O[C@@H](CO)[C@H](O)[C@@H](O)[C@@H]3O)[C@H](O)[C@H]2O)[C@H](O)[C@@H](O)[C@@H]1O [Validamycin A] | causes phytotoxicity | no phenotypic irregularities | not sufficient to inhibit increased trehalase activity | specifically inhibits trehalase activity |  |  |  |  |  |  | 
OC[C@H]1O[C@H](O[C@H]2O[C@H](CO)[C@@H](O)[C@H](O)[C@H]2O)[C@H](O)[C@@H](O)[C@@H]1O [trehalose, α-D-glucopyranosyl-1,1-α-D-glucopyranoside] |  |  |  |  | arrest with development shortly after germination | more dramatic decrease in root length | significantly more affected in development | rather gradual inhibitory effect | significantly more resistant | insensitive | increased inhibition of root growth and development
